Measured values taken from publication PMC11320730, “5-Methoxy-2-aminoindane Reverses Diet-Induced Obesity and Improves Metabolic Parameters in Mice: A Potential New Class of Antiobesity Therapeutics” (ACS Pharmacology & Translational Science, 2024).

What was measured:
[1] = system: liver of DIO C57BL/6 mice; assay: Liver weight, hepatic triglyceride and cholesterol contents, histopathology and Oil Red O staining in DIO mice; assay type: in vivo; conditions: 40 mg/kg/day
Description: Male C57BL/6 mice were used to establish DIO by feeding them a high-fat diet (HFD; 60% cal/L fat, 20% cal/L protein, and 20% cal/L carbohydrates; Research Diet, D12492) for 18 weeks. After this period, mice were treated with either vehicle (sterile water, N = 8) or MEAI (N = 11) daily for 28 days by gavage at a dose of 40 mg/kg/day. Age-matched control mice (N = 10) on a standard diet (STD; 14% kcal fat, 24% kcal protein, 62% kcal carbohydrates; NIH-31 rodent diet) received vehicle daily. The body weight of all mice was monitored daily, and total body fat and lean mass were determined by EchoMRI-100H (Echo Medical Systems LLC, Houston, Texas, USA). On day 29, at the end of the experimental period, mice were euthanized by a cervical dislocation under anesthesia. The kidneys, brain, liver, and fat pads were removed and weighed, and samples were either snap-frozen or fixed in buffered 4% formalin. Trunk blood was collected to determine the biochemical parameters.
At the time of animal sacrifice, liver tissue was extracted following the established protocol described previously.[19] The extracted liver tissue was then analyzed for cholesterol and triglyceride contents using a Cobas C-111 chemistry analyzer (Roche, Switzerland).
Paraffin-embedded liver sections (5 μm) from five animals per group were processed for hematoxylin–eosin staining. Liver images were captured using a Zeiss Axio Scope A1 light microscope (Carl Zeiss AG, Jena, Germany) equipped with a Zeiss AxioCam ICc 5 color camera. Ten random 40× fields of view were taken from each animal to obtain representative images.
Liver cryosections (8 μm) were stained with Oil Red O (Cat# ab150678; Abcam, Cambridge, UK) following the manufacturer’s protocol. Images were acquired as described above. For quantitative analysis of Oil Red O staining, the area of lipid droplets in the liver cryosections was measured using ImageJ software.

[2] = molecular target: 5-HT2B (Homo sapiens, UniProt P41595); assay: Ligand binding assay (Eurofins); design: Eurofins (contract screening service); conditions: read-out: inhibitory activity (% inhibition of the binding of a specific ligand)
Sequence of 5-HT2B (P41595 whole entry): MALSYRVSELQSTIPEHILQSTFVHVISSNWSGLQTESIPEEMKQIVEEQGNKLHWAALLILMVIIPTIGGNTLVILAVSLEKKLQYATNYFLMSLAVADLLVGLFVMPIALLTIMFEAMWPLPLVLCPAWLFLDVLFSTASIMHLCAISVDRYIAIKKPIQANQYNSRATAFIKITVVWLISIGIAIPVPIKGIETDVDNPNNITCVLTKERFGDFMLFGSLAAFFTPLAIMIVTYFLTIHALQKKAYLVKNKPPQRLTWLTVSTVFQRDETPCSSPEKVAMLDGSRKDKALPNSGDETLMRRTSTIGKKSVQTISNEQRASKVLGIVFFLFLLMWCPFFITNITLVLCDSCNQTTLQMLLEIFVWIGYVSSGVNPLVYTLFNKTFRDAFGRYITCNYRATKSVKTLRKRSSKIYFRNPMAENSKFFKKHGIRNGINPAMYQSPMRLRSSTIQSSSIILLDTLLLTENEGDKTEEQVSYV
Description: MEAI at 10 μM was tested in ligand binding assays at Eurofins Inc., as described previously.[20] Compound binding was calculated as a % inhibition of the binding of a ligand specific for each target. Results showing an inhibition or stimulation higher than 50% are considered to represent significant effects of MEAI. In each experiment, and if applicable, the respective reference compound was tested concurrently with MEAI and the data were compared with historical values determined at Eurofins. The experiment was accepted in accordance with the Eurofins validation Standard Operating Procedure.

## COc1ccc2c(c1)CC(N)C2.Cl (stereo not shown) [MEAI, 2,3-Dihydro-5-methoxy-1H-inden-2-amine hydrochloride]
[1]; DIO mice, vs HFD vehicle
  Oil Red O staining of liver: decrease
  hepatic cholesterol levels: trend toward a reduction
  lipid vacuole numbers in liver: reduced
  liver triglycerides: significant reductions
[1]; HFD-fed mice, 28 days
  liver weight: reduced
  liver weight to body weight ratio: normalized
[2]
  inhibition at 10 µM: > 50%
